The results in this text go back to the METLIN SMRT retention time set (Domingo-Almenara et al. 2019).

This data set can be described thus: gradient 5% acetonitrile 3 min, to 50% in 2 min, to 85% in 15 min, held 3 min, 100 µL/min. Conditions: column: Zorbax Extend-C18 2.1 x 50 mm; eluents: water / acetonitrile, 0.1% formic acid. In outline: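 Pure standards were run in mixtures of ~100 molecules by HPLC coupled to a quadrupole time-of-flight mass spectrometer. The column was a Zorbax Extend-C18 (2.1 × 50 mm, 1.8 μm) at 100 μL/min, with water and acetonitrile each containing 0.1% formic acid, in positive and negative ionization mode. Dead and dwell volumes were 40 μL and 900 μL. Retention time was taken from computationally picked adduct peaks, each manually inspected, with data collected over 3 months.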
Turning to `O=C1OC2CC1N(C(=O)Cn1c(=O)oc3ccccc31)C2` (centres undefined), the RP-LC retention time came to 618 s.

`Cc1ccc(-c2coc3cc4oc(=O)c(CC(=O)N5CCC(C(N)=O)CC5)c(C)c4cc23)cc1` showed an RP-LC retention time of 813 s.

`COc1ccc(-c2cc3c(=O)n(Cc4noc(CN5CCC(C)CC5)n4)ccn3n2)cc1` came in with an RP-LC retention time of 664 s.

With `O=C(c1ccc2c(c1)CCCN2S(=O)(=O)c1ccc(Cl)cc1)N1CCOCC1`, the RP-LC retention time turned out to be 880 s.

In turn, `Cc1cc(C)c(S(=O)(=O)N2CC(=O)N(CC3CC3)C3(CCOCC3)C2)c(C)c1` yielded an RP-LC retention time of 944 s.

For the compound `CC1CCN(CCNc2ccc(-c3nc(-c4ccc(F)cc4)no3)cn2)CC1`, the RP-LC retention time was determined as 777 s.

Regarding `CN(CCc1noc(COc2ccc(Cl)cc2)n1)C(=O)Nc1cccc(F)c1`, the RP-LC retention time amounted to 984 s.

For the compound `Cc1cnn(Cc2cc(C(=O)N3C[C@@H](CO)[C@H](N(C)C)C3)no2)c1`, the RP-LC retention time turned out to be 566 s.

Compound `COc1ccc(CC(=O)Nc2ccc3c(c2)Sc2ncccc2C(=O)N3C)cc1` returned an RP-LC retention time of 748 s.

Regarding `Cc1ccc(CNC(=O)c2ccc(Cn3nc(N4CCN(c5ccccc5)CC4)ccc3=O)o2)o1`, the RP-LC retention time amounted to 706 s.

Compound `CCCC(=O)N1CCCN(C2=NS(=O)(=O)C(c3ccccc3)=C2C)CC1` gave an RP-LC retention time of 740 s.

In turn, `CC1Oc2ccc(-c3csc(NC(=O)c4cccnc4)n3)cc2NC1=O` (centres undefined) came in with an RP-LC retention time of 704 s.

In the case of `CC(C)Nc1nc(N2CCN(C3CCCCC3)CC2)nc2c1cnn2C`, the RP-LC retention time was determined as 648 s.

In turn, `COc1cccc(OC)c1C(=O)Nc1ccc2c(c1)Sc1ncccc1C(=O)N2C` registered an RP-LC retention time of 706 s.

Turning to `CCNC(=O)N1CCc2c(c(-c3nc(Cc4ccccc4)no3)nn2C)C1`, the RP-LC retention time worked out at 742 s.

In the case of `CCOc1ccc(NC(=O)Cn2c(=O)n(-c3cccc(C)c3)c(=O)c3c2cc(C)n3C)cc1`, the RP-LC retention time amounted to 864 s.

With `CCCn1c(=O)sc2cc(S(=O)(=O)N3CCC(C(=O)Nc4ccc(C)c(C)c4)CC3)ccc21`, the RP-LC retention time turned out to be 1030 s.

In turn, `c1ccc(-c2nc(-c3ccc(OC4CNC4)cc3)no2)cc1` registered an RP-LC retention time of 686 s.

Regarding `O=C(CN1CCc2[nH]c3c(F)c(Cl)ccc3c(=O)c2C1)NCc1ccc2c(c1)OCO2`, the RP-LC retention time is 661 s.

In the case of `CC(C)N1C(=O)c2cccnc2Sc2cc(NC(=O)Cc3cccc(Cl)c3)ccc21`, the RP-LC retention time was determined as 940 s.

In the case of `Cc1nc2cc(-c3noc(-c4ccc(Br)o4)n3)ccc2o1`, the RP-LC retention time was determined as 1090 s.

`CCNC(=O)c1ccc(-c2ccc3c(c2)CCN3C(C)=O)cc1` yielded an RP-LC retention time of 691 s.

With `COc1ccc(-c2nnc(-c3cc(S(N)(=O)=O)ccc3Cl)o2)cc1`, the RP-LC retention time is 792 s.

In turn, `Cc1noc(C)c1CC(=O)N1CC[C@@H]2CN(S(C)(=O)=O)[C@@H]2C1` gave an RP-LC retention time of 608 s.

With `CCn1cc(-c2nc(CC(=O)Nc3ccc(F)c(F)c3)cs2)c2cccnc21`, the RP-LC retention time came out at 961 s.

`O=C(NC1CC1)c1cn(-c2ccc(-c3nc(C4CC4)no3)cn2)cn1` displayed an RP-LC retention time of 762 s.

For `Cc1cccc(CNC(=O)C2(C)Cn3cnc(C(=O)NCc4ccccc4F)c3C(=O)N2C2CC2)c1` (centres undefined), the RP-LC retention time was 772 s.

For `COCCCNC(=O)C1CCN(C2=NS(=O)(=O)C(c3ccc(Cl)cc3)=C2C)CC1`, the RP-LC retention time was determined as 748 s.

The compound `Cc1oc(C2CCC2)nc1C(=O)NCc1ccccc1C(F)(F)F` displayed an RP-LC retention time of 1130 s.

`Cc1ccc(N2CCC(NC(=O)Nc3cccc(Br)c3)C2=O)cc1` (centres undefined): the RP-LC retention time is 955 s.

In turn, `O=C(c1nccc2ccccc12)N1CCc2cc(-c3ccno3)ccc21` came in with an RP-LC retention time of 1000 s.

Take `Cc1ccc(CNC(=O)C2(C)Cn3cnc(C(=O)NCc4ccccc4F)c3C(=O)N2C2CC2)cc1` (centres undefined): the RP-LC retention time worked out at 780 s.

Turning to `CCn1cc2c(n1)c(=O)n(Cc1ccccc1)c(=O)n2CC(=O)NCc1ccccc1`, the RP-LC retention time came out at 819 s.

`COc1cc(NC(=O)COc2nc(C)nc3ccccc23)cc(OC)c1` came in with an RP-LC retention time of 735 s.

In turn, `CCSc1nnc(-c2nn(C)c3c2CN(C(=O)c2ccccc2)CC3)n1C` gave an RP-LC retention time of 716 s.

With `COc1ccc(S(=O)(=O)Nc2cccc(-c3cn4cccc(C)c4n3)c2)cc1OC`, the RP-LC retention time turned out to be 634 s.

With `COc1ccc(Cl)cc1S(=O)(=O)N1CCc2nc(-c3ccc(F)cc3)ncc2C1`, the RP-LC retention time was 1130 s.

`CC1CCC(NS(=O)(=O)c2ccc3c(c2)c(=O)n(CC(=O)N2CCCC2)c(=O)n3C)CC1` (centres undefined) registered an RP-LC retention time of 834 s.

In turn, `Cc1noc(C)c1-c1ccc(S(=O)(=O)NC(C)C)cc1` displayed an RP-LC retention time of 812 s.

`CN(C)C(=O)c1nc2ccccn2c1-c1ccsc1` registered an RP-LC retention time of 595 s.

Turning to `Cc1ccc(-n2nc(C(=O)N3CCN(c4ccccn4)CC3)c3c4ccccc4n(C)c3c2=O)cc1`, the RP-LC retention time came out at 705 s.

`COCc1noc(C2CCCCN2CC(=O)Nc2nccs2)n1` (centres undefined) yielded an RP-LC retention time of 720 s.

`COc1cc(CNC(=O)COc2ccc(NC(=O)C3CC3)cn2)cc(OC)c1` displayed an RP-LC retention time of 713 s.

`COc1cccc(CNC(=O)N2CCCC2c2c(C)noc2C)c1` (centres undefined) came in with an RP-LC retention time of 733 s.

Compound `CCC(C(=O)N1CCN(c2ncccn2)CC1)n1c2ccccc2c2cnn(C)c(=O)c21` (centres undefined) gave an RP-LC retention time of 875 s.

Regarding `CCCCC(=O)Nc1nc(-c2ccc3c(c2)N(CC)C(=O)CO3)cs1`, the RP-LC retention time was found to be 932 s.

As for `CCCN(CCC)S(=O)(=O)c1ccc(C)cc1`, the RP-LC retention time is 1200 s.

Consider `COc1ccc(NC(=O)NCC2CCOCC2)cc1F`, for which the RP-LC retention time was 668 s.

For `CC1CCN(C(=O)c2csc(-c3ccc(N4CCCC4)nc3)n2)CC1`, the RP-LC retention time was determined as 660 s.

`CCn1cc(C(=O)Nc2ccc(C)cc2C)c2cccnc21`: the RP-LC retention time is 962 s.

On to `CCOc1ccc(CC(=O)N2C[C@@H]3C[C@H]2C[C@@H]3NC(=O)c2ccccc2)cc1`, for which the RP-LC retention time stood at 762 s.

For the compound `O=C(c1ccc2c(c1)OCO2)N1[C@H]2CC[C@@H]1c1cnc(-c3ccccc3)nc1C2`, the RP-LC retention time turned out to be 914 s.

In turn, `COc1ccc(Cl)cc1S(=O)(=O)N1CCC(C(=O)NCCc2csc(C)n2)CC1` returned an RP-LC retention time of 732 s.

Compound `O=C([C@@H]1C[C@H](F)CN1S(=O)(=O)c1ccc(F)cc1F)N1CCCCC1` registered an RP-LC retention time of 812 s.

Compound `O=C(CN1C(=O)COc2ccccc21)N1CCSCC1` returned an RP-LC retention time of 712 s.

The compound `CCCOc1nc2ccccc2nc1N1CCCC(C(=O)Nc2ccc(F)c(Cl)c2)C1` (centres undefined) yielded an RP-LC retention time of 1130 s.

The compound `Cc1ccc(Cl)cc1NC(=O)CN(C)S(=O)(=O)c1c[nH]c(C(=O)N2CCCC2)c1` yielded an RP-LC retention time of 818 s.

Compound `COc1cccc(S(=O)(=O)N2[C@H]3CC[C@@H]2c2cnc(C)nc2C3)c1` registered an RP-LC retention time of 692 s.

`CC(C)CCNC(=O)Cn1c(=O)c2cnc(-c3ccc(Cl)cc3)nc2n(C)c1=O` came in with an RP-LC retention time of 740 s.

Turning to `O=C(CSc1nnc(-c2ccncc2)o1)NCc1ccc2c(c1)OCO2`, the RP-LC retention time was 596 s.

`CCC(C)n1c(=O)c2ccccc2n(Cc2nc(-c3ccc(C(F)(F)F)cc3)no2)c1=O` (centres undefined) gave an RP-LC retention time of 1290 s.

In turn, `CCc1cc(C(=O)Nc2ccc(F)cc2)nc2ccnn12` returned an RP-LC retention time of 997 s.

As to `O=c1[nH]c2ccc(NCc3ccccc3Cl)cc2[nH]1`, the RP-LC retention time was found to be 641 s.

Regarding `C=CCc1cc(OC)c(O)c(C(=O)NCCO)c1`, the RP-LC retention time worked out at 735 s.

For the compound `COc1cccc(S(=O)(=O)N2CC(F)(F)C[C@H]2CN2CCc3ccccc3C2)c1`, the RP-LC retention time is 807 s.

For the compound `Cc1cc(C)cc(C(=O)NC2CCN(c3cc(-c4cccs4)[nH]n3)C2)c1` (centres undefined), the RP-LC retention time is 742 s.

Take `O=C(NCc1ccco1)c1ccc(Cn2nc(N3CCN(c4ccc(F)cc4)CC3)ccc2=O)o1`: the RP-LC retention time came out at 820 s.

Turning to `Cc1nc(-c2cn(C(C)C)c3ncccc23)sc1C(=O)NCCN1CCOCC1`, the RP-LC retention time was found to be 630 s.

`O=C(O)c1cc(-c2ccco2)n(C2CCS(=O)(=O)C2)n1` (centres undefined): the RP-LC retention time was 604 s.

As for `Cc1sc(NC(=O)C2CCCO2)nc1-c1ccc2c(c1)NC(=O)CO2` (centres undefined), the RP-LC retention time stood at 732 s.

In the case of `OCCn1cc(-c2cnc3nnn(Cc4ccc5ncccc5c4)c3n2)cn1`, the RP-LC retention time came out at 620 s.

Regarding `COc1cc(OC)cc(-c2noc(-c3nnn(Cc4nc(-c5cccc(C)c5)oc4C)c3C)n2)c1`, the RP-LC retention time stood at 1280 s.

For the compound `CCc1nc(-c2ccc3c(c2)CCN3C(=O)Cc2cc(OC)cc(OC)c2)no1`, the RP-LC retention time worked out at 996 s.

In turn, `COc1cccc(CCC(=O)N2CCn3cnnc3C2)c1` had an RP-LC retention time of 584 s.

With `COCCN1CC(CO)C2(CCN(Cc3ccc(OC)cc3OC)CC2)C1` (centres undefined), the RP-LC retention time worked out at 540 s.

On to `Cc1ccc(NC(=O)CN2CCC(c3nc(-c4cccs4)no3)CC2)c(C)c1`, for which the RP-LC retention time amounted to 718 s.

As to `O=C(CCn1cnc2cc(-c3noc(COc4ccccc4)n3)ccc21)N1CCCC1`, the RP-LC retention time worked out at 730 s.

In the case of `O=C(CCC1CCN(c2cc(NC3CC3)ncn2)CC1)NCc1ccc(F)cc1F`, the RP-LC retention time was 684 s.

Regarding `CC(=O)NCCc1nc2ccccc2n1CCCOc1cccc2ccccc12`, the RP-LC retention time amounted to 611 s.
